≈ marks a conversion by molar mass, not a printed value.
The compounds below were run on Staphylococcus aureus (ATCC29213, SA) (assay: Minimal inhibitory concentration (MIC), SA). Conditions: Staphylococcus aureus ATCC29213.
Type: cell-based
Experimental: (§1) The minimal inhibitory concentration (MIC) of tested compounds was determined following the NCCLS standard. The experiments were conducted in 96-well microtiter plates using two-fold dilutions in Muller-Hilton broth with (Streptococcus pneumonia) or without blood (Bacillus subtilis, Enterococcus faecalis, Staphylococcus aureus, Escherichia coli, MRSA, Actinetobacter baumannii, Pseudomonas aeruginosa, Stenotrophomonas maltophilia, and Mycobacterium smegmatis). Exponentially growing cells at 5×10^5 cells/ml were incubated with test compounds at various concentrations. After an 18 h to 24 h incubation at 37° C., MIC was determined as the minimal concentration of the compound that prevents bacterial growth.

Structure (SMILES) | MIC SA
O=C(Nc1cc(Cl)c(Cl)c(Cl)c1)c1cc(Cl)cc(Cl)c1O [Compound 004] | 0.125 µg/mL (≈ 0.324 µM)
O=C(Nc1cc(Cl)cc(C(=O)c2ccc(Cl)cc2)c1Cl)c1cc(Br)cc(Br)c1O [Compound 115] | 0.5 µg/mL (≈ 0.864 µM)
O=C(Nc1cc(Cl)cc(C(=O)c2ccccc2)c1Cl)c1cc(Br)cc(Br)c1O [Compound 116] | 1 µg/mL (≈ 1.84 µM)
O=C(Nc1cc(Cl)cc(C(=O)c2ccc(Cl)cc2)c1Cl)c1cc(Cl)cc(Br)c1O [Compound 117] | 0.5 µg/mL (≈ 0.936 µM)
Cc1ccc(C(C)C)cc1Oc1ccc(Cl)cc1NC(=O)c1cc(Cl)cc(Br)c1O [Compound 121] | 0.25 µg/mL (≈ 0.491 µM)
O=C(Nc1ccc(Oc2ccc(Cl)cc2)c(Cl)c1)c1cc(Br)cc(Br)c1O [Compound 122] | 0.5 µg/mL (≈ 0.94 µM)
O=C(c1ccc(Cl)cc1)c1cc(NC(=O)c2cc(Cl)cc(Br)c2O)c(Cl)cc1Cl [Compound 123] | 0.25 µg/mL (≈ 0.468 µM)
Cc1ccc(C(C)C)cc1Oc1ccc(Cl)cc1NC(=O)c1cc(Cl)cc(Br)c1O [Compound 206] | 1 µg/mL (≈ 1.96 µM)
O=C(c1ccc(Cl)cc1)c1ccc(Oc2ccc(Cl)cc2)c(NC(=O)c2cc(I)cc(I)c2O)c1 [Compound 207] | 8 µg/mL (≈ 11 µM)

The compounds below were run on Escherichia coli (ATCC 25922, EC) (assay: Minimal inhibitory concentration (MIC), EC). Conditions: ATCC25922; Escherichia coli ATCC 25922; read-out: MIC EC.
Type: cell-based
Experimental: as §1

Structure (SMILES) | MIC
O=C(Nc1cc(Cl)c(Cl)c(Cl)c1)c1cc(Cl)cc(Cl)c1O [Compound 004] | 16 µg/mL (≈ 41.5 µM)

Same assay, conditions: Escherichia coli ATCC 25922

Structure (SMILES) | MIC EC
O=C(Nc1cc(Cl)cc(C(=O)c2ccc(Cl)cc2)c1Cl)c1cc(Br)cc(Br)c1O [Compound 115] | >256 µg/mL
O=C(Nc1cc(Cl)cc(C(=O)c2ccccc2)c1Cl)c1cc(Br)cc(Br)c1O [Compound 116] | >256 µg/mL
O=C(Nc1cc(Cl)cc(C(=O)c2ccc(Cl)cc2)c1Cl)c1cc(Cl)cc(Br)c1O [Compound 117] | >256 µg/mL
Cc1ccc(C(C)C)cc1Oc1ccc(Cl)cc1NC(=O)c1cc(Cl)cc(Br)c1O [Compound 121] | >256 µg/mL
O=C(Nc1ccc(Oc2ccc(Cl)cc2)c(Cl)c1)c1cc(Br)cc(Br)c1O [Compound 122] | >256 µg/mL
O=C(c1ccc(Cl)cc1)c1cc(NC(=O)c2cc(Cl)cc(Br)c2O)c(Cl)cc1Cl [Compound 123] | >256 µg/mL

These compounds were tested on Mycobacterium smegmatis (ATCC11565, MS) (assay: Minimal inhibitory concentration (MIC), MS). Conditions: Mycobacterium smegmatis ATCC11565.
Type: cell-based
Experimental: as §1

Structure (SMILES) | MIC MS
O=C(Nc1cc(Cl)c(Cl)c(Cl)c1)c1cc(Cl)cc(Cl)c1O [Compound 004] | ≦0.03 μg/ml
O=C(Nc1cc(Cl)cc(C(=O)c2ccc(Cl)cc2)c1Cl)c1cc(Br)cc(Br)c1O [Compound 115] | 0.25 µg/mL (≈ 0.432 µM)
O=C(Nc1cc(Cl)cc(C(=O)c2ccccc2)c1Cl)c1cc(Br)cc(Br)c1O [Compound 116] | 0.5 µg/mL (≈ 0.919 µM)
O=C(Nc1cc(Cl)cc(C(=O)c2ccc(Cl)cc2)c1Cl)c1cc(Cl)cc(Br)c1O [Compound 117] | 0.25 µg/mL (≈ 0.468 µM)
Cc1ccc(C(C)C)cc1Oc1ccc(Cl)cc1NC(=O)c1cc(Cl)cc(Br)c1O [Compound 121] | 0.25 µg/mL (≈ 0.491 µM)
O=C(Nc1ccc(Oc2ccc(Cl)cc2)c(Cl)c1)c1cc(Br)cc(Br)c1O [Compound 122] | 0.125 µg/mL (≈ 0.235 µM)
O=C(c1ccc(Cl)cc1)c1cc(NC(=O)c2cc(Cl)cc(Br)c2O)c(Cl)cc1Cl [Compound 123] | 0.06 µg/mL (≈ 0.112 µM)
Cc1ccc(C(C)C)cc1Oc1ccc(Cl)cc1NC(=O)c1cc(Cl)cc(Br)c1O [Compound 206] | 1 µg/mL (≈ 1.96 µM)
O=C(c1ccc(Cl)cc1)c1ccc(Oc2ccc(Cl)cc2)c(NC(=O)c2cc(I)cc(I)c2O)c1 [Compound 207] | 32 µg/mL (≈ 43.8 µM)

What follows are compounds tested against T1, penicillin-binding protein 1b from E. coli (transglycosylase) (Escherichia coli, UniProt P02919) (assay: Lipid II polymerization / transglycosylase (TG) activity assay). Conditions: 25 μM compound; TG activity remaining (0% = full inhibition).
T1 construct: PBP1b[58-804] was amplified from E. coli genomic DNA and cloned into the expression vector pET15b; His6 (N, cleaved yes); made in house; host or cells: E. coli BL21(DE3)
Type: biochemical
Experimental: Lipid II polymerization assays were carried out by incubating 100 μM fluorophore-labeled lipid II and penicillin-binding protein 1b from E. coli in tubes containing 10 ng/μL N-acetyl muramidase in 50 mM Tris.HCl (pH 8.0), 10 mM MgCl2, 0.1% Triton X-100, 10% DMSO, and 15% MeOH for 30 minutes (Van Nieuwenhze et al. J Am Chem Soc 2002, 124, 3656.). The fluorophore can be dansyl chloride, NBD, BODIPY, fluorescein. Reaction supernatants were then injected onto an anion-exchange HPLC column (SAX1, Supelco Co.) and eluted with a linear gradient of ammonium acetate (20 mM to 0.5 M) in methanol. The eluant was monitored for fluorescence with λex=466 nm and λem=535 nm.
Purified protein was concentrated in 20 mM Tris-HCl (pH 8.0), 300 mM NaCl, and 1 mM DDM. Instead of using Dansyl lipid II, 6-(N-(7-nitrobenz-2-oxa-1,3-diazol-4-yl)amino) hexanoyl (NBD)-labeled Lipid II was prepared as described (Taubes G (2008) Science 321:356-361; Payne D J (2008) Science 321:1644-1645) and used as a substrate to measure TG enzymatic activity, with approach similar to what has been described previously (Holtje J V (1998) Microbiol Mol Biol Rev 62:181-203). Assays were carried out by using the following condition: NBD-Lipid II, 20 nM protein, 50 mM Tris HCl (pH 8.0), 10 mMCaCl2, 0.085% decyl PEG (Anatrace), and 15% MeOH at 37° C. for 0, 1, 3, 5, 7, 9, 20, and 30 min. The concentration of NBD-Lipid II was varied from 1 to 100 μM to determine the rate of the TG activity. After the reaction, 200 μM moenomycin was added to stop the reaction, and 13 μM muramidase (Sigma-Aldrich) was added to digest the TG products to result in NBD-Lipid II without lipid tails. The fluorescent signal decrease of substrate and increase of NBD-Lipid II without lipid tails were detected by anion-exchange column SAX1 (Supelco) on HPLC (Hitachi). The elution procedures was a linear gradient of ammonium acetate (20 mM to 1 M) in MeOH monitored at λexcitation=466 nm and λemission=535 nm. The kinetic parameter was estimated by following the Michaelis-Menten equation. To investigate the importance of transmembrane (TM) helix, PBP1b and PBP1bΔTM (residues Met-1 to Leu-87 were removed) were extracted with the buffer containing 20 mM Tris-HCl (pH 8.0), 300 mM NaCl, and 13 mM FOS-CHOLINE-14 (Anatrace). The protein was purified by nickel chelation chromatography in the presence of 1 mM DDM. The activity assay was carried out by using the following condition: 12 μM NBD-Lipid II, 20 nM protein, 50 mM Tris-HCl (pH 8.0), 10 mM CaCl2, 0.085% decyl PEG, and 15% MeOH at 37° C. for time 0, 1, 3, 5, 7, 9, 20, and 30 min. The initial velocity was used to compare the activity of full-length PBP1b and PBP1bΔTM.

T1 sequence (P02919 58-804): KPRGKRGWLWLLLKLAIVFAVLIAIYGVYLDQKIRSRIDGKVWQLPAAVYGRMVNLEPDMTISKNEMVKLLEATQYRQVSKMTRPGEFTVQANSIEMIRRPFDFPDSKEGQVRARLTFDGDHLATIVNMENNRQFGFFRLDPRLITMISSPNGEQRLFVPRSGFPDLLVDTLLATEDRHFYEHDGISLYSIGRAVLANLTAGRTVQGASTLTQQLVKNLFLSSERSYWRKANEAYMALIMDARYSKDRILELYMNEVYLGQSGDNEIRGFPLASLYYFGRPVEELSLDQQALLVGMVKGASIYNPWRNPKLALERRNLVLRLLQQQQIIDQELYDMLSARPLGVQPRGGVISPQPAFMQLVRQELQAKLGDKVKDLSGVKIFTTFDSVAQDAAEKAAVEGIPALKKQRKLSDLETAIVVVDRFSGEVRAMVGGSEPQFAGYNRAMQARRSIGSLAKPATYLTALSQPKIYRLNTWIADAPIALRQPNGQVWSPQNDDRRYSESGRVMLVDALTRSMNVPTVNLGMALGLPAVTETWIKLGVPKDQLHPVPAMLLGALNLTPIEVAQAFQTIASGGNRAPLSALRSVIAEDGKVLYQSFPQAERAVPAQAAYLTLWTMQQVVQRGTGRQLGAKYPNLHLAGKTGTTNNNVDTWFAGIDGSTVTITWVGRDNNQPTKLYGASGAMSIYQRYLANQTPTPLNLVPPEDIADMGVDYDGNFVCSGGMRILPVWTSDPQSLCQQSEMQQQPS

Structure (SMILES) | TG Activity at various concentration of cmpd: 25 μM
Cc1ccc(C(C)C)cc1Oc1ccc(Cl)cc1NC(=O)c1cc(Cl)cc(Br)c1O [Compound 121] | 90%
Cc1ccc(C(C)C)cc1Oc1ccc(Cl)cc1NC(=O)c1cc(Cl)cc(Br)c1O [Compound 206] | 60%
O=C(c1ccc(Cl)cc1)c1ccc(Oc2ccc(Cl)cc2)c(NC(=O)c2cc(I)cc(I)c2O)c1 [Compound 207] | 20%

Same assay, conditions: 50 μM compound; TG activity remaining (0% = full inhibition)

Structure (SMILES) | TG Activity at various concentration of cmpd: 50 μM
O=C(Nc1cc(Cl)cc(C(=O)c2ccc(Cl)cc2)c1Cl)c1cc(Br)cc(Br)c1O [Compound 115] | 100%
O=C(Nc1cc(Cl)cc(C(=O)c2ccccc2)c1Cl)c1cc(Br)cc(Br)c1O [Compound 116] | 100%
O=C(Nc1cc(Cl)cc(C(=O)c2ccc(Cl)cc2)c1Cl)c1cc(Cl)cc(Br)c1O [Compound 117] | 100%
Cc1ccc(C(C)C)cc1Oc1ccc(Cl)cc1NC(=O)c1cc(Cl)cc(Br)c1O [Compound 121] | 0%
O=C(Nc1ccc(Oc2ccc(Cl)cc2)c(Cl)c1)c1cc(Br)cc(Br)c1O [Compound 122] | 60%
O=C(c1ccc(Cl)cc1)c1cc(NC(=O)c2cc(Cl)cc(Br)c2O)c(Cl)cc1Cl [Compound 123] | 60%
Cc1ccc(C(C)C)cc1Oc1ccc(Cl)cc1NC(=O)c1cc(Cl)cc(Br)c1O [Compound 206] | 0%
O=C(c1ccc(Cl)cc1)c1ccc(Oc2ccc(Cl)cc2)c(NC(=O)c2cc(I)cc(I)c2O)c1 [Compound 207] | 0%

Same assay, conditions: 100 μM compound; TG activity remaining (0% = full inhibition)

Structure (SMILES) | TG Activity at various concentration of cmpd: 100 μM
O=C(Nc1cc(Cl)cc(C(=O)c2ccc(Cl)cc2)c1Cl)c1cc(Br)cc(Br)c1O [Compound 115] | 0%
O=C(Nc1cc(Cl)cc(C(=O)c2ccccc2)c1Cl)c1cc(Br)cc(Br)c1O [Compound 116] | 0%
O=C(Nc1cc(Cl)cc(C(=O)c2ccc(Cl)cc2)c1Cl)c1cc(Cl)cc(Br)c1O [Compound 117] | 0%
Cc1ccc(C(C)C)cc1Oc1ccc(Cl)cc1NC(=O)c1cc(Cl)cc(Br)c1O [Compound 121] | 0%
O=C(Nc1ccc(Oc2ccc(Cl)cc2)c(Cl)c1)c1cc(Br)cc(Br)c1O [Compound 122] | 0%
O=C(c1ccc(Cl)cc1)c1cc(NC(=O)c2cc(Cl)cc(Br)c2O)c(Cl)cc1Cl [Compound 123] | 0%

Same assay, conditions: read-out: TG Activity at various concentration of cmpd: 100 μM

Structure (SMILES) | remaining activity at 100 µM
O=C(Nc1cc(Cl)c(Cl)c(Cl)c1)c1cc(Cl)cc(Cl)c1O [Compound 004] | 100%

These compounds were tested on methicillin-resistant Staphylococcus aureus (ATCC33592, MRSA) (assay: Minimal inhibitory concentration (MIC), MRSA). Conditions: Staphylococcus aureus, methicillin-resistant Staphylococcus aureus ATCC33592; read-out: MIC MRSA.
Type: cell-based
Experimental: as §1

Structure (SMILES) | MIC
O=C(Nc1cc(Cl)c(Cl)c(Cl)c1)c1cc(Cl)cc(Cl)c1O [Compound 004] | 0.5 µg/mL (≈ 1.3 µM)

Same assay, conditions: methicillin-resistant Staphylococcus aureus ATCC33592

Structure (SMILES) | MIC MRSA
O=C(Nc1cc(Cl)cc(C(=O)c2ccc(Cl)cc2)c1Cl)c1cc(Br)cc(Br)c1O [Compound 115] | 2 µg/mL (≈ 3.46 µM)
O=C(Nc1cc(Cl)cc(C(=O)c2ccccc2)c1Cl)c1cc(Br)cc(Br)c1O [Compound 116] | 8 µg/mL (≈ 14.7 µM)
O=C(Nc1cc(Cl)cc(C(=O)c2ccc(Cl)cc2)c1Cl)c1cc(Cl)cc(Br)c1O [Compound 117] | 0.5 µg/mL (≈ 0.936 µM)
Cc1ccc(C(C)C)cc1Oc1ccc(Cl)cc1NC(=O)c1cc(Cl)cc(Br)c1O [Compound 121] | 0.125 µg/mL (≈ 0.245 µM)
O=C(Nc1ccc(Oc2ccc(Cl)cc2)c(Cl)c1)c1cc(Br)cc(Br)c1O [Compound 122] | 0.25 µg/mL (≈ 0.47 µM)
O=C(c1ccc(Cl)cc1)c1cc(NC(=O)c2cc(Cl)cc(Br)c2O)c(Cl)cc1Cl [Compound 123] | 0.25 µg/mL (≈ 0.468 µM)
Cc1ccc(C(C)C)cc1Oc1ccc(Cl)cc1NC(=O)c1cc(Cl)cc(Br)c1O [Compound 206] | 0.5 µg/mL (≈ 0.982 µM)
O=C(c1ccc(Cl)cc1)c1ccc(Oc2ccc(Cl)cc2)c(NC(=O)c2cc(I)cc(I)c2O)c1 [Compound 207] | 4 µg/mL (≈ 5.48 µM)

Reference: patent publication US9890111B2, “Crystal structure of bifunctional transglycosylase PBP1b from E. coli and inhibitors thereof” (Academia Sinica, priority 2008, dated 2018)
